The values that follow come from BindingDB's records for doi:10.1016/s0028-3908(00)00022-8 (University of Frankfurt, 2000).

In assay [1] the target is T1, ATP receptor (Xenopus sp., UniProt F6VH38).
T1 sequence (F6VH38 whole entry): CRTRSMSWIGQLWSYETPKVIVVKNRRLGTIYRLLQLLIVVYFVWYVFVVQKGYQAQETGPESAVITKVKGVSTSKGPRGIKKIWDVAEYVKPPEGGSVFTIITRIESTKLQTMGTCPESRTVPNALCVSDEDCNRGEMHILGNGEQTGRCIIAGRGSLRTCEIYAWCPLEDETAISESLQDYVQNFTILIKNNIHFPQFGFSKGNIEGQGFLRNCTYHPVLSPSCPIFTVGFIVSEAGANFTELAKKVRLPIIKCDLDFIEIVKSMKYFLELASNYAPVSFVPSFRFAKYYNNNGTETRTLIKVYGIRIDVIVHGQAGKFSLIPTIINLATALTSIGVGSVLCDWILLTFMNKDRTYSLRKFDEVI

Assay [2] deals with T2, ATP receptor (Xenopus sp., UniProt Q64F95).
T2 sequence (Q64F95 whole entry): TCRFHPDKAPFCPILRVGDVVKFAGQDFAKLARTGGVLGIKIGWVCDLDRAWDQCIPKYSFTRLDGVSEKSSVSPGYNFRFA

A further assay addresses T3, P2X purinoceptor (Xenopus sp., UniProt Q9DDP1).
T3 sequence (Q9DDP1 whole entry): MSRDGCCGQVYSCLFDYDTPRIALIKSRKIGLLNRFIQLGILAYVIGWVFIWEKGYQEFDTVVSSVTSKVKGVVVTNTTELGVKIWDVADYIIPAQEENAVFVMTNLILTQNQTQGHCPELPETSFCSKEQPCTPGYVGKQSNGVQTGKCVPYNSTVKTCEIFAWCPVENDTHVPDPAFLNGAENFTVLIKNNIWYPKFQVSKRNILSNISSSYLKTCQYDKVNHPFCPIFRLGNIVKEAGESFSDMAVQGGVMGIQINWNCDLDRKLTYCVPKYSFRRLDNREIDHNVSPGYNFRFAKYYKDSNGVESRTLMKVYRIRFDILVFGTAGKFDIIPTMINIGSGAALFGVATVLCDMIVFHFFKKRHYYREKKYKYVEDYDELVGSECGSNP

Some results are limits rather than exact numbers.

What is called Ki is the dissociation constant of the complex between target and ligand, obtained from inhibition or displacement. Low values mean higher affinity, high ones lower affinity. As to `O=C(Nc1ccc(C(=O)Nc2ccc(C(=O)Nc3ccc(S(=O)(=O)O)c4cc(S(=O)(=O)O)cc(S(=O)(=O)O)c34)cc2)cc1)Nc1ccc(C(=O)Nc2ccc(C(=O)Nc3ccc(S(=O)(=O)O)c4cc(S(=O)(=O)O)cc(S(=O)(=O)O)c34)cc2)cc1` [CAS_5311315], the Ki on ATP receptor [1] is 770 nM; at ATP receptor [2], 1620 nM; on P2X purinoceptor it was over 10000 nM.
